Patent US7833991B2, “Amine compound and use thereof” (Kureha Corporation, priority 2002, dated 2010)
Where two headings read alike, the source gives them in different places.

Assays:
CXCR4 = molecular target: T1, CXCR4 (Homo sapiens, UniProt P61073); assay: Inhibition of 125I-SDF-1α binding to receptors CXCR4 on MT-4 cells (Test Examples 2 and 5); conditions: binding-inhibition % at 0.1 μM
T1 construct: endogenous in cells; host or cells: MT-4 cells
Method: MT-4 cells (5×10^6/0.2 ml/well) were cultured on a 24-well microtiter plate. After the cells were incubated for 24 hours at 37° C. in a carbon dioxide gas incubator, a culture medium was replaced with a buffer solution (0.1% BSA-containing RPMI-1640). Together with a ligand ^125I-SDF-1α, (specific activity: 2,200 Ci/mmol; available from Daiichi Pure Chemicals Co., Ltd. (Tokyo)), test materials with various concentrations were subjected to a binding reaction for 2 hours under ice-cooling. […] Then, a rate of inhibition of the binding between radio-active ligands and receptors CXCR4 by a test material was calculated (a binding-inhibition % at 0.1 μM).
(§1) Compounds of the present invention having various substituted and unsubstituted heterocyclic rings for the substituent A2 of formula (1) were tested for antiviral (anti-HIV) activity as in Test Example 1 and for CXCR4 activity as in Test Example 2. The compounds, various substituents of the compounds, antiviral activity represented by the concentration required for inhibition of all disorder due to HIV injection by 50% (EC50: 50% Effective Concentration, μM), and CXCR4 activity calculated as a rate of inhibition of the binding between radioactive ligands and CXCR4 receptors by a test material (a binding-inhibition % at 0.1 μM) are shown in Table 5: […]

ICR mice = assay: Acute toxicity in mice, single administration via tail vein (Test Example 3); format: in vivo; conditions: ICR mice (male), 2.5 mg/kg once
Method: The aforementioned compound was examined for acute toxicity. Specifically, 7-week-old ICR mice (male) were divided into several groups (4 or 5 mice in each group), and the mice were bred for 1 week for habituation. Subsequently, each of the compounds of Examples was dissolved in distilled water or physiological saline, and the solution was administered to the mice via tail vein (dose: 2.5 mg/kg) once. Then, dead mice were counted.

[1] = tested on: HIV-1IIIB infected MT-4 cells; assay: Antiviral activity in HIV-1IIIB infected MT-4 cells, MTT method (Test Examples 1 and 5); format: cell-based
Method: Immediately after infection, HIV-1IIIB infected MT-4 cells (3.0×10^4/well, MOI (Multiplicity of infection): 0.01) were added to a 96-well microtiter plate together with the test compounds having different concentrations. The cells were cultured in a carbon dioxide incubator at 37° C. for 5 days, and the number of living cells was measured in accordance with the MTT (tetrazolium) method (Pawels, et al., Journal of Virology Method, 20, 309-321 ([…])). The antiviral activity is represented by the concentration required for inhibition of cell disorder due to HIV by 50% (EC50: 50% Effective Concentration) (μM), and the results are shown in Table 2.
as §1

[2] = 125I-SDF-1α, MT-4 cells, 2 hours under ice-cooling, read-out: Inhibition rate (%)
[3] = Human immunodeficiency virus 1, MT4, 120 h, concentration required for inhibition of cell disorder due to HIV by 50%, MT-4 cells, MOI 0.01, 5 days, MTT method, read-out: EC50
[4] = as in Test Example 2, Table 5, read-out: CXCR4 Activity % at 0.1 μM
[5] = Human immunodeficiency virus 1, MT4, as in Test Example 1, Table 5, read-out: HIV Activity EC50

T1 sequence (P61073 whole entry): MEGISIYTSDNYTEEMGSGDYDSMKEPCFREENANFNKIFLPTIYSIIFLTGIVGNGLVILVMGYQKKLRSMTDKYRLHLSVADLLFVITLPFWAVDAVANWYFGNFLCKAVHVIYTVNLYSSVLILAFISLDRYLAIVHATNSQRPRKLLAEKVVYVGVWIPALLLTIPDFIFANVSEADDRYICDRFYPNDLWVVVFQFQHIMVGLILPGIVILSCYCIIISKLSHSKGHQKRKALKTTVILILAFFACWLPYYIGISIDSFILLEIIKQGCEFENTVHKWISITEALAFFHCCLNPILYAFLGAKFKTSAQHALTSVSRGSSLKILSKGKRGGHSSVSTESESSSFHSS

CCCN(CCC)CCCCNC(=O)c1ccc(CN(Cc2ncc[nH]2)Cc2ncc[nH]2)cc1 [Compound No. 1, 4-{[bis(1H-imidazol-2-ylmethyl)-amino]-methyl}-N-(4-dipropylamino-butyl)-benzamide]
inhibition at 0.1 µM (CXCR4; [2]): 100%
Dead mice/test mice (ICR mice): 0/5
EC50 [1, 3]: 4 nM

CC(C)CN(CCCCNC(=O)c1ccc(CN(Cc2ncc[nH]2)Cc2ncc[nH]2)cc1)CC(C)C [Compound No. 2, 4-{[bis(1H-imidazol-2-ylmethyl)-amino]-methyl}-N-(4-diisobutylamino-butyl)-benzamide]
inhibition at 0.1 µM (CXCR4; [2]): 100%
Dead mice/test mice (ICR mice): 0/5
EC50 [1, 3]: 3 nM

NCCCCNC(=O)c1ccc(CN(Cc2ncc[nH]2)Cc2ncc[nH]2)cc1 [Compound No. 3, 4-{[bis(1H-imidazol-2-ylmethyl)-amino]-methyl}-N-(4-aminobutyl)-benzamide]
inhibition at 0.1 µM (CXCR4; [2]): 100%
Dead mice/test mice (ICR mice): 0/5
EC50 [1, 3]: 3 nM

O=C(NCCCCNCc1ccccc1C(F)(F)F)c1ccc(CN(Cc2ncc[nH]2)Cc2ncc[nH]2)cc1 [Compound No. 11, 4-{[bis(1H-imidazol-2-ylmethyl)-amino]-methyl}-N-[4-(2-trifluoromethyl)-benzylamino-butyl]-benzamide]
inhibition at 0.1 µM (CXCR4; [2]): 95%
Dead mice/test mice (ICR mice): 0/5
EC50 [1, 3]: 23 nM

O=C(NCCCCNCc1ccccc1OC(F)(F)F)c1ccc(CN(Cc2ncc[nH]2)Cc2ncc[nH]2)cc1 [Compound No. 12, 4-{[bis(1H-imidazol-2-ylmethyl)-amino]-methyl}-N-[4-(2-trifluoromethoxy)-benzylamino-butyl]-benzamide]
inhibition at 0.1 µM (CXCR4; [2]): 95%
Dead mice/test mice (ICR mice): 0/5
EC50 [1, 3]: 49 nM

CCCN(CCC)Cc1ccc(NC(=O)c2ccc(CN(Cc3ncc[nH]3)Cc3ncc[nH]3)cc2)cc1 [Compound No. 19, 4-{[bis(1H-imidazol-2-ylmethyl)-amino]-methyl}-N-(4-dipropylaminomethylphenyl)-benzamide]
inhibition at 0.1 µM (CXCR4; [2]): 100%
Dead mice/test mice (ICR mice): 0/5
EC50 [1, 3]: 2 nM

CCCN(CCC)CCCCNCc1ccc(CN(Cc2ncc[nH]2)Cc2ncc[nH]2)cc1 [Compound No. 25, N-(4-{[bis(1H-imidazol-2-ylmethyl)-amino]-methyl}-benzyl)-N′,N′-dipropylbutane-1,4-diamine]
inhibition at 0.1 µM (CXCR4; [2]): 100%
Dead mice/test mice (ICR mice): 0/5
EC50 [1, 3]: 2 nM

CCCN(CCC)Cc1ccc(NC(=O)c2ccc(CN(Cc3ncc[nH]3)Cc3nccn3C)cc2)cc1 [Compound No. 49, N-(4-dipropylaminomethylphenyl)-4-{[(1H-imidazol-2-ylmethyl)-(1-methyl-1H-imidazol-2-ylmethyl)-amino]-methyl}-benzamide]
inhibition at 0.1 µM (CXCR4; [4]): 100%
inhibition at 0.1 µM (CXCR4; [2]): 100%
Dead mice/test mice (ICR mice): 0/5
EC50 [1, 3]: 2 nM
EC50 [1, 5]: 2 nM

CCCN(CCC)Cc1ccc(NC(=O)c2ccc(CN(Cc3ncc[nH]3)Cc3nc4ccccc4[nH]3)cc2)cc1 [Compound No. 61, N-(4-dipropylaminomethylphenyl)-4-{[(1H-imidazol-2-ylmethyl)-(1H-benzimidazol-2-ylmethyl)-amino]-methyl}-benzamide]
inhibition at 0.1 µM (CXCR4; [4]): 100%
inhibition at 0.1 µM (CXCR4; [2]): 100%
Dead mice/test mice (ICR mice): 0/5
EC50 [1, 3]: 2 nM
EC50 [1, 5]: 2 nM

CCCN(CCC)CCCCNCc1ccc(CN(Cc2ccc(C)cn2)Cc2ncc[nH]2)cc1 [Compound No. 75, N-(4-{[(1H-imidazol-2-ylmethyl)-(5-methylpyridine-2-ylmethyl)-amino]-methyl}-benzyl)-N′,N′-dipropylbutane-1,4-diamine]
inhibition at 0.1 µM (CXCR4; [2]): 100%
Dead mice/test mice (ICR mice): 0/5
EC50 [1, 3]: 2 nM

CCCN(CCC)CCCCN(C)Cc1ccc(CN(Cc2ncc[nH]2)Cc2nccn2C)cc1 [Compound No. 98, N-(4-{[(1H-imidazol-2-ylmethyl)-(1-methyl-1H-imidazol-2-ylmethyl)-amino]-methyl}-benzyl)-N-methyl-N′,N′-dipropylbutane-1,4-diamine]
inhibition at 0.1 µM (CXCR4; [2]): 100%
Dead mice/test mice (ICR mice): 0/5
EC50 [1, 3]: 3 nM

CCCN(CCC)Cc1ccc(NC(=O)c2ccc(CN(Cc3ncc[nH]3)Cc3ncc(C)cc3C)cc2)cc1 [Compound No. 101, 4-{[(3,5-dimethyl-pyridin-2-ylmethyl)-(1H-imidazol-2-ylmethyl)-amino]-methyl}-N-(4-dipropylaminomethyl-phenyl)-benzamide]
inhibition at 0.1 µM (CXCR4; [4]): 99.1%
EC50 [1, 5]: 5 nM

CCCN(CCC)Cc1ccc(NC(=O)c2ccc(CN(Cc3ccc(CC)cn3)Cc3ncc[nH]3)cc2)cc1 [Compound No. 102, N-(4-dipropylaminomethyl-phenyl)-4-{[(5-ethyl-pyridin-2-ylmethyl)-(1H-imidazol-2-ylmethyl)-amino]-methyl}-benzamide]
inhibition at 0.1 µM (CXCR4; [4]): 98.4%
EC50 [1, 5]: 3 nM

CN(CCCCNS(=O)(=O)c1ccc(CN(Cc2ncc[nH]2)Cc2nccn2C)cc1)C1CCCCC1 [Compound No. 109, N-[4-(cyclohexyl-methyl-amino)-butyl]-4-{[(1H-imidazol-2-ylmethyl)-(1-methyl-1H-imidazol-2-ylmethyl)-amino]-methyl}-benzenesulfonamide]
inhibition at 0.1 µM (CXCR4; [2]): 100%
Dead mice/test mice (ICR mice): 0/5
EC50 [1, 3]: 2 nM

CCCN(CCC)Cc1ccc(NC(=O)c2ccc(CN(Cc3nc[nH]n3)Cc3ncc[nH]3)cc2)cc1 [Compound No. 114, N-(4-di-n-propylaminomethyl-phenyl)-4-{[(1H-imidazol-2-ylmethyl)-(1H-[1,2,4]-triazol-3-ylmethyl)-amino]-methyl}-benzamide]
inhibition at 0.1 µM (CXCR4; [4]): 96.4%
EC50 [1, 5]: 89 nM

CCCN(CCC)CCCCN(C)Cc1ccc(CN(Cc2ncc[nH]2)Cc2nnc[nH]2)cc1 [Compound No. 116, N-(4-{[(imidazol-2-ylmethyl)-([1,2,4]-triazol-3-ylmethyl)-amino]-methyl}-benzyl)-N-methyl-N′,N′-dipropylbutane-1,4-diamine]
inhibition at 0.1 µM (CXCR4; [2]): 100%
Dead mice/test mice (ICR mice): 0/5
EC50 [1, 3]: 2 nM
